Measurements from ChEMBL document CHEMBL5465560, “Selectivity Literature for EUbOPEN Chemogenomic Library” (2024).

Columns and labels:
[1] = molecular target: Macrophage colony-stimulating factor 1 receptor (Homo sapiens) (UniProt P07333); test: Selectivity interaction (KinaseProfiler screening (Millipore)) EUB0000601a CSF1R; conditions: at 3 µM
[2] = molecular target: Tyrosine-protein kinase Yes (Homo sapiens) (UniProt P07947); conditions: at 10 µM
[3] = molecular target: T1, Mitogen-activated protein kinase kinase kinase 13 (Homo sapiens) (UniProt O43283); test: Selectivity interaction (Ambit KINOMEscan and KiNATiv profiling in Jurkat cells) EUB0000090b MAP3K13; type: cell-based; conditions: at 1 µM
T1 sequence (whole entry): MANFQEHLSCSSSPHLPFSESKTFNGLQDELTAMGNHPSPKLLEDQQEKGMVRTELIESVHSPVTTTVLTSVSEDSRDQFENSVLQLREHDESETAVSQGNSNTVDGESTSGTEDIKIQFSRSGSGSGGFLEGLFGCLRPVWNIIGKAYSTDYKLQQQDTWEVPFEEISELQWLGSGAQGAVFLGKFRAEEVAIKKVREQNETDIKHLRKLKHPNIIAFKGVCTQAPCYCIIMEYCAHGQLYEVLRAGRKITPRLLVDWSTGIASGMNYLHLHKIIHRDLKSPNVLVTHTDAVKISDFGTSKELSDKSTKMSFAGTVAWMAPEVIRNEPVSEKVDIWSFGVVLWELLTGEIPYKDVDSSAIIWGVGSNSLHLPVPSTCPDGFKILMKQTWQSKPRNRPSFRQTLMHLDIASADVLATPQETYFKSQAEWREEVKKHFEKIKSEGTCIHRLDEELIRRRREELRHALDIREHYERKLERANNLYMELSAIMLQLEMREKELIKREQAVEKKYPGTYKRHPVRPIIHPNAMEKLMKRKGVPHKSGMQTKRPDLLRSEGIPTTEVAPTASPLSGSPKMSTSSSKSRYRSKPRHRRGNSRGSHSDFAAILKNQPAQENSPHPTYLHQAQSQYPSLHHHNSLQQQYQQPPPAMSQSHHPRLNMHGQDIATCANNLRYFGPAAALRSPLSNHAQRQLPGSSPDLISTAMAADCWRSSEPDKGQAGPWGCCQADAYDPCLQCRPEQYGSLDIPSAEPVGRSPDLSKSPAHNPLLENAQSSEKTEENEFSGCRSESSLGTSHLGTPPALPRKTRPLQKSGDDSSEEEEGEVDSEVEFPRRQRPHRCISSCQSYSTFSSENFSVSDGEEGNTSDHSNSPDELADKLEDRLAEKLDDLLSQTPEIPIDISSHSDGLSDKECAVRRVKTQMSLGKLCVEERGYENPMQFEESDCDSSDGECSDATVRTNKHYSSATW

[4] = molecular target: Protein kinase C gamma type (Homo sapiens) (UniProt P05129); test: Selectivity interaction (Millipore kinase profiler) EUB0000124b PRKCG; conditions: at 10 µM
[5] = molecular target: T2, Non-receptor tyrosine-protein kinase TNK1 (Homo sapiens) (UniProt Q13470); test: Selectivity interaction (KinomeScan (DiscoverX)) EUB0000595a TNK1; conditions: at 10 µM
T2 sequence (whole entry): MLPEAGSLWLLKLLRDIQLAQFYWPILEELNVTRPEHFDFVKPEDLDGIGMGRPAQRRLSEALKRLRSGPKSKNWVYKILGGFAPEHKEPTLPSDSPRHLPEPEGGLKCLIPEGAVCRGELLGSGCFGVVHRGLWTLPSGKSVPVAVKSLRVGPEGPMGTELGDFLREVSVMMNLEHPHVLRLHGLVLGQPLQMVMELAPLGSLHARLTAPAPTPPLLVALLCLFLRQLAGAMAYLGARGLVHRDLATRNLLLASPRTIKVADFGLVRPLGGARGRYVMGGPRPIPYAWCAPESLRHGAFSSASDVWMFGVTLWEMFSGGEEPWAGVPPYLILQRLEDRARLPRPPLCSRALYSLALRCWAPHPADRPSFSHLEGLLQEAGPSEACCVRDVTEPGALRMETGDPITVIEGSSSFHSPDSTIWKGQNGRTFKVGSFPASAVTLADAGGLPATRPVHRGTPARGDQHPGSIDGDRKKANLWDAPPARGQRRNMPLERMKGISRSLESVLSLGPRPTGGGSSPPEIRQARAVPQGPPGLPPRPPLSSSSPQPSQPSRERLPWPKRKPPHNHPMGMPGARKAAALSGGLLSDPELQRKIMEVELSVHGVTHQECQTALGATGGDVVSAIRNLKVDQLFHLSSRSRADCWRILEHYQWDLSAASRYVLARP

[6] = molecular target: Ribosomal protein S6 kinase alpha-1 (Homo sapiens, UniProt Q15418); conditions: at 10 µM
Chain of Ribosomal protein S6 kinase alpha-1 (Q15418 whole entry): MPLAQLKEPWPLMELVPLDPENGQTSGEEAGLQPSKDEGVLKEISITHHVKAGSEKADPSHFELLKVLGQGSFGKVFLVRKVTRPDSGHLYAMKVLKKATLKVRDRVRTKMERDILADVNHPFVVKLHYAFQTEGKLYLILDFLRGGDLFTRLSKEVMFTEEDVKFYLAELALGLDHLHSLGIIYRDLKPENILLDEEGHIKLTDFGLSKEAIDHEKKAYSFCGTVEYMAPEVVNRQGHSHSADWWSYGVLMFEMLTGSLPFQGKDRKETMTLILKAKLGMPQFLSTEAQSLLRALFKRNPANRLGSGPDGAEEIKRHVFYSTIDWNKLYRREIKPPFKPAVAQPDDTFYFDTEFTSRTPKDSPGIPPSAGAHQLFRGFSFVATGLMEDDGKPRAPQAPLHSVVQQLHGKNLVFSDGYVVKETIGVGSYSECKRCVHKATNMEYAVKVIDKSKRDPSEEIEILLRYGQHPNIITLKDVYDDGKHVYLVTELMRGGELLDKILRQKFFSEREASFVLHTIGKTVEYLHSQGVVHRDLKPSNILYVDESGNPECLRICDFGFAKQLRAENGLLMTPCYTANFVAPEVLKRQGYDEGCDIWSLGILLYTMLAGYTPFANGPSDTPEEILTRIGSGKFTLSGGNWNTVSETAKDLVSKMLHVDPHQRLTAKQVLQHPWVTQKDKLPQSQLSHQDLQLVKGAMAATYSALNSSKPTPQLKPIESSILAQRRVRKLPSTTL

Focal adhesion kinase 1 = Focal adhesion kinase 1 (Homo sapiens, UniProt Q05397); test: Selectivity interaction (KinomeScan (DiscoverX)) EUB0000229b PTK2; conditions: at 10 µM
Chain of Focal adhesion kinase 1 (Q05397 2-1052 limits assumed): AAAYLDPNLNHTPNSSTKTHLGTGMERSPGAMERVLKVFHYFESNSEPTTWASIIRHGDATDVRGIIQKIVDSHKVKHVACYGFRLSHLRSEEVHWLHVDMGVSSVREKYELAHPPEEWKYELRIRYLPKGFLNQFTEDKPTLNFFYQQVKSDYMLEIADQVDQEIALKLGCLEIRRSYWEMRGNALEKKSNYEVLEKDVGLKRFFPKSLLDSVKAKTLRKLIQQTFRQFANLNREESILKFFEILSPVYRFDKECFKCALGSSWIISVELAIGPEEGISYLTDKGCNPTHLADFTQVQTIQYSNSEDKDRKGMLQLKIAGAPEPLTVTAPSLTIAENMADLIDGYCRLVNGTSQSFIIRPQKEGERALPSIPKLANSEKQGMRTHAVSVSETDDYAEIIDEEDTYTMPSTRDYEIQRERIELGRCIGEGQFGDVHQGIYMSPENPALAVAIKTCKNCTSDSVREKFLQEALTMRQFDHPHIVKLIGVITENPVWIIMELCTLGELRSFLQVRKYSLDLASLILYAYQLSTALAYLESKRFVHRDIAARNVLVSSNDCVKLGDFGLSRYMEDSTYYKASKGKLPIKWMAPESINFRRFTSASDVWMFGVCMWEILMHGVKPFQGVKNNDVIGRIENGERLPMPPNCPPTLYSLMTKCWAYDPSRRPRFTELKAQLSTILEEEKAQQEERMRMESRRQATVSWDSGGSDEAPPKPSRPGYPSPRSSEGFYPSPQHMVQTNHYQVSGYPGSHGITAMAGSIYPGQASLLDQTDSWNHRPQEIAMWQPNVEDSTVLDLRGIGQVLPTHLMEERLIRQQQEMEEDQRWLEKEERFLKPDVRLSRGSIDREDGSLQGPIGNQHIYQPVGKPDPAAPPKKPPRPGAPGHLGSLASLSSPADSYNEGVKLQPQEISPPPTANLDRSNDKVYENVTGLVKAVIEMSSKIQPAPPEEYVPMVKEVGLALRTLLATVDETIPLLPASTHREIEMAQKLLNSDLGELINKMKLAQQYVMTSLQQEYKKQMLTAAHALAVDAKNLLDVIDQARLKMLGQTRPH

[7] = molecular target: Growth hormone secretagogue receptor type 1 (Homo sapiens, UniProt Q92847); test: Selectivity interaction (Ghrelin receptor binding assay, human recombinant ) EUB0000877a […]
Chain of Growth hormone secretagogue receptor type 1 (Q92847 whole entry): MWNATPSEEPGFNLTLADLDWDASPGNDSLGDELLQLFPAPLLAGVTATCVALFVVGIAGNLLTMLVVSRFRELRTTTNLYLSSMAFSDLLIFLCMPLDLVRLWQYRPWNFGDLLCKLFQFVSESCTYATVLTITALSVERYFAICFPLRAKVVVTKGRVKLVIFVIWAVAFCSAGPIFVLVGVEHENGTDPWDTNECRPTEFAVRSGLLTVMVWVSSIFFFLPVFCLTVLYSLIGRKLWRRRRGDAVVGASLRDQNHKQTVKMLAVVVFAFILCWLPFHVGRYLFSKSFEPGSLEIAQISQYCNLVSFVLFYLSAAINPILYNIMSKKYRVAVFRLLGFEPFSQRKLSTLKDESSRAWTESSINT

[8] = molecular target: T3, Dual specificity protein kinase TTK (Homo sapiens) (UniProt P33981); test: Selectivity interaction (KinomeScan (DiscoverX)) EUB0000092b TTK; conditions: at 10 µM
T3 sequence (whole entry): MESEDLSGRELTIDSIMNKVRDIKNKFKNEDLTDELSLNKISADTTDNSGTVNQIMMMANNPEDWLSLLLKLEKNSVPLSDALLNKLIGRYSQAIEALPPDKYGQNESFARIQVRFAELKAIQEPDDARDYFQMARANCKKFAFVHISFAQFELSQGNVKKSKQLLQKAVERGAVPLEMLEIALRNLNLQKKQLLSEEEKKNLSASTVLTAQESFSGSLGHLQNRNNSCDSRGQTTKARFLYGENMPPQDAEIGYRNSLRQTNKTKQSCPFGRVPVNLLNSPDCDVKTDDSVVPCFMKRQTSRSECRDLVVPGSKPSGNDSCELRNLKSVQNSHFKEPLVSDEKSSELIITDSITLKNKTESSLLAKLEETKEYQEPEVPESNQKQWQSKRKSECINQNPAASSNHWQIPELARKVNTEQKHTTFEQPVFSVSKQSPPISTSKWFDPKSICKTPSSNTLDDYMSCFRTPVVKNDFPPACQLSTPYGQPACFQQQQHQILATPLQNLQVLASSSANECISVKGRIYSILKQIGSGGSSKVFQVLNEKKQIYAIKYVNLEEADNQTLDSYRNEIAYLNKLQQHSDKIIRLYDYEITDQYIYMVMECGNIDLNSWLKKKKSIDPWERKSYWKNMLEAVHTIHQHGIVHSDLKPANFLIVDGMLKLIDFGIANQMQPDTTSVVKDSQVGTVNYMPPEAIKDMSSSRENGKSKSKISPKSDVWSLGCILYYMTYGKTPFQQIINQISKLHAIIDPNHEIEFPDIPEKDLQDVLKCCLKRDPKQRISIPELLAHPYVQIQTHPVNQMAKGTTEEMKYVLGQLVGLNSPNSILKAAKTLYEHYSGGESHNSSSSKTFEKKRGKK

[9] = molecular target: T3, Dual specificity protein kinase TTK (Homo sapiens); test: Selectivity interaction (LanthaScreen Eu Kinase Binding Assay) EUB0001632a TTK; conditions: at 10 µM

Chain of Macrophage colony-stimulating factor 1 receptor (Homo sapiens) (P07333 whole entry): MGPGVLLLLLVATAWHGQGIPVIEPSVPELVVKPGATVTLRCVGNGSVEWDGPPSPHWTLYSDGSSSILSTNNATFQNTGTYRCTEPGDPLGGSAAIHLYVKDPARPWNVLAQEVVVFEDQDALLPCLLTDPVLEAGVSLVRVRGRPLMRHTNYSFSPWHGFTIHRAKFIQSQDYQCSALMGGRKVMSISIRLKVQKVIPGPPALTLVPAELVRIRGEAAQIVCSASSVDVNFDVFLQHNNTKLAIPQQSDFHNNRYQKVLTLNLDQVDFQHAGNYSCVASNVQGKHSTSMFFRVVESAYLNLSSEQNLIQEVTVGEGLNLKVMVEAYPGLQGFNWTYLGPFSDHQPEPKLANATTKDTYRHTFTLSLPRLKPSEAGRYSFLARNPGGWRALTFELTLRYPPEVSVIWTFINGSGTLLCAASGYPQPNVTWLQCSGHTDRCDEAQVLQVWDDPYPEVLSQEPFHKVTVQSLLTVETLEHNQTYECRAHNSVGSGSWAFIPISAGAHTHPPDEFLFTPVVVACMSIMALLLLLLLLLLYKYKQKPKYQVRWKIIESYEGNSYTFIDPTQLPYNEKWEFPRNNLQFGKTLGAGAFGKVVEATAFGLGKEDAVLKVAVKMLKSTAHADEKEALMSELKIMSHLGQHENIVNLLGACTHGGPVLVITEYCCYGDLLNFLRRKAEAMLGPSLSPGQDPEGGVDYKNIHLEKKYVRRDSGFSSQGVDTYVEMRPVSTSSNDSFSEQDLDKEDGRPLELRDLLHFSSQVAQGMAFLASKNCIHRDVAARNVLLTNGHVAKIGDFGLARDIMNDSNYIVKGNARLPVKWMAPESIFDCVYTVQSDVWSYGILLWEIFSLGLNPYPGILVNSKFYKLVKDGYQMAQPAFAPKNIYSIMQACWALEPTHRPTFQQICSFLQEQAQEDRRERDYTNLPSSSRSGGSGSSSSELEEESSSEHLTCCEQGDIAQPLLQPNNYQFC
Chain of Tyrosine-protein kinase Yes (Homo sapiens) (P07947 2-543 limits assumed): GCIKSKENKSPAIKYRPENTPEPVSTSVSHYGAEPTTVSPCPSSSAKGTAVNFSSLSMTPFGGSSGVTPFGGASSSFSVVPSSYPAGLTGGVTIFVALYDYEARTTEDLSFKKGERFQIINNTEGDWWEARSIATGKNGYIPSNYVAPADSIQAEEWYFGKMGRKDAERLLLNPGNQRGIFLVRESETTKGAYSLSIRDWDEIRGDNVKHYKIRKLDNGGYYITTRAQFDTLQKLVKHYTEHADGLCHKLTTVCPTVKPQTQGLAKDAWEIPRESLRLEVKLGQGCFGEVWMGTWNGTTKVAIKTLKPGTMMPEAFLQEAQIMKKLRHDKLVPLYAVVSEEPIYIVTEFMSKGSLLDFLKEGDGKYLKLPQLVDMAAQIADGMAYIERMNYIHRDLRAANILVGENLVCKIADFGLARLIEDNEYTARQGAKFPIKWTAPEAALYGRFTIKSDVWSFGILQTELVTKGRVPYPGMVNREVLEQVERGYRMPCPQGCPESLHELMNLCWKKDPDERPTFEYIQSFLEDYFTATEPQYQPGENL

## CCc1cc(Nc2nccc(-c3c(-c4ccc(OC)c(C(=O)Nc5c(F)cccc5F)c4)nc4ccccn34)n2)c(OC)cc1N1CCC(N2CCN(S(C)(=O)=O)CC2)CC1
[1]
  % of inhibition: 50%

## CCN(CC)CCCCNc1ncc2cc(-c3cc(OC)cc(OC)c3)c(NC(=O)NC(C)(C)C)nc2n1
[2]
  % of control: 100%

## CN(C)C/C=C/C(=O)Nc1ccc(C(=O)N2CCCC(Nc3ncc(Cl)c(-c4c[nH]c5ccccc45)n3)C2)cc1 (stereo not given)
[3]
  % of control: 95%

## CC(=O)Nc1cccc(-n2c(=O)n(C3CC3)c(=O)c3c(Nc4ccc(I)cc4F)n(C)c(=O)c(C)c32)c1
[4]
  % of control: 107%

## COCC(=O)NC/C=C/c1ccc2ncnc(Nc3ccc(Oc4ccc(C)nc4)c(C)c3)c2c1 [CP-724714]
[5]
  % of control: 86%

## Cc1cc([C@@H](C)Nc2ccccc2C(=O)O)c2nc(N3CCOCC3)cc(=O)n2c1 [AZD-6482]
[6]
  % of control: 73%

## COc1cc(N(C)c2ccnc3ccc(C(F)(F)F)cc23)cc(OC)c1OC
Focal adhesion kinase 1
  % binding: 100%

## CCC(=O)N1CC[C@H](Nc2ncnc3c2CN(c2cnc(OC)c(C(F)(F)F)c2)CC3)C1 [LENIOLISIB]
[7]
  IC50: > 30 µM

## CCC(=O)N1CCN(c2ccc(-n3c(=O)ccc4cnc5ccc(-c6cnc7ccccc7c6)cc5c43)cc2C(F)(F)F)CC1
[8]
  % of control: 9.6%

## Cn1cc(-n2cnc3c(NCc4nc5cc(Cl)c(Cl)cc5[nH]4)nc(N4CCOCC4)nc32)cn1
[9]
  % of inhibition: -54.1%
